The target of one assay is TNFα (Homo sapiens, UniProt P01375). Put plainly: TNF induced HEK-Blue assay (NF-kB-driven secreted alkaline phosphatase reporter). The class given is cell-based. As to conditions: TNF induced HEK-Blue assay IC50 value, TNFα 0.5 ng/mL, HEK-Blue-CD40L cells, 18 h. Summed up: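 HEK-Blue-CD40L cells (NF-kB-driven SEAP reporter), 20,000/well, added after 30 min pre-incubation of compound (0.004–25 μM final) with TNFα 0.5 ng/mL final at 37 °C; 18 h incubation. SEAP read with QUANTI-Blue at 620 nm; IC50 from 4-parameter logistic fit, normalized to unstimulated and stimulated DMSO controls.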
Sequence of TNFα (P01375 77-233 limits assumed): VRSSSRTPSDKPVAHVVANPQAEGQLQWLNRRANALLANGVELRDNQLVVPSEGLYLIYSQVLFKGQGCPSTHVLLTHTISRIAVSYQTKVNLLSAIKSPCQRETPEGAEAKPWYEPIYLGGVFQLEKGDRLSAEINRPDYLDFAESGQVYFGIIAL
The molecule `C[C@@H](Nc1c(Cl)cnc2ccc(-c3cnc(N4CCN(CC(N)=O)CC4)nc3)cc12)c1ccccc1F` [Example 90, (R)-2-(4-(5-(3-chloro-4-((1-(2-fluorophenyl)ethyl)amino)quinolin-6-yl)pyrimidin-2-yl)piperazin-1-yl)acetamide] showed an IC50 below 1 µM.
Take `CC(=O)N1CCC[C@H]([C@H](C)Nc2c(Cl)cnc3ccc(-c4cnc(C(C)(C)O)nc4)cc23)C1` [Example 107, 1-((S)-3-((S)-1-((3-chloro-6-(2-(2-hydroxypropan-2-yl)pyrimidin-5-yl)quinolin-4-yl)amino)ethyl)piperidin-1-yl)ethanone]: the IC50 is below 1 µM.

Staying with this assay, now noted: TNFα 0.5 ng/mL, HEK-Blue-CD40L cells, 18 h; read-out: TNF induced HEK-Blue assay IC50 value.
As to `C[C@@H](Nc1c(Cl)cnc2ccc(-c3cnc(N4CCN(CC(=O)NS(C)(=O)=O)CC4)nc3)cc12)c1ccccc1F` [Example 91, (R)-2-(4-(5-(3-chloro-4-((1-(2-fluorophenyl)ethyl)amino)quinolin-6-yl)pyrimidin-2-yl)piperazin-1-yl)-N-(methylsulfonyl)acetamide], the IC50 was below 1 µM.
Still for that read-out and setting: in the case of `O=C(O)CN1CCN(c2ncc(-c3ccc4ncc(Cl)c(N[C@@H](c5ccccc5F)C(F)F)c4c3)cn2)CC1` [Example 92, (S)-2-(4-(5-(3-chloro-4-((2,2-difluoro-1-(2-fluorophenyl)ethyl)amino)quinolin-6-yl)pyrimidin-2-yl)piperazin-1-yl)acetic acid] it was below 1 µM.
Same read-out and setting: then `C[C@@H](Nc1c(Cl)cnc2ccc(-c3cnc(N4CCN([C@@H](CNC(=O)OC(C)(C)C)C(=O)O)CC4)nc3)cc12)c1ccccc1F` [Example 93, (S)-3-((tert-butoxycarbonyl)amino)-2-(4-(5-(3-chloro-4-(((R)-1-(2-fluorophenyl)ethyl)amino)quinolin-6-yl)pyrimidin-2-yl)piperazin-1-yl)propanoic acid], with 1 to 10 µM; and `C[C@@H](Nc1c(Cl)cnc2ccc(-c3cnc(N4CCN([C@@H](CN)C(=O)O)CC4)nc3)cc12)c1ccccc1F` [Example 94, (S)-3-amino-2-(4-(5-(3-chloro-4-(((R)-1-(2-fluorophenyl)ethyl)amino)quinolin-6-yl)pyrimidin-2-yl)piperazin-1-yl)propanoic acid], with below 1 µM; and `CC(=O)NC[C@@H](C(=O)O)N1CCN(c2ncc(-c3ccc4ncc(Cl)c(N[C@H](C)c5ccccc5F)c4c3)cn2)CC1` [Example 95, (S)-3-acetamido-2-(4-(5-(3-chloro-4-(((R)-1-(2-fluorophenyl)ethyl)amino)quinolin-6-yl)pyrimidin-2-yl)piperazin-1-yl)propanoic acid], with 1 to 10 µM.
With `COC(=O)[C@H](CN)N1CCN(c2ncc(-c3ccc4ncc(Cl)c(N[C@H](C)c5ccccc5F)c4c3)cn2)CC1` [Example 99, methyl (S)-3-amino-2-(4-(5-(3-chloro-4-(((R)-1-(2-fluorophenyl)ethyl)amino)quinolin-6-yl)pyrimidin-2-yl)piperazin-1-yl) propanoate], the concentration for half-maximal inhibition (IC50) lay in the range of 1 to 10 µM.
In the case of `C[C@@H](Nc1c(Cl)cnc2ccc(-c3ccc(C(N)CO)cc3)cc12)c1ccccc1F` (stereo partly drawn) [Example 100, 2-amino-2-(4-(3-chloro-4-(((R)-1-(2-fluorophenyl)ethyl)amino)quinolin-6-yl)phenyl)ethan-1-ol], the IC50 fell in the range of 1 to 10 µM.
Take `C[C@@H](Nc1c(Cl)cnc2ccc(-c3ccc(C(=O)NCCCCN)nc3)cc12)c1ccccc1F` [Example 101, (R)—N-(4-aminobutyl)-5-(3-chloro-4-((1-(2-fluorophenyl)ethyl)amino)quinolin-6-yl)picolinamide]: the IC50 lay in the range of 10 to 25 µM.
On the same count and under the same terms, then `C[C@@H](Nc1c(Cl)cnc2ccc(-c3ccc(C4(N)CC4)cc3)cc12)c1ccccc1F` [Example 102, (R)-6-(4-(1-aminocyclopropyl)phenyl)-3-chloro-N-(1-(2-fluorophenyl)ethyl)quinolin-4-amine], with below 1 µM; and `C[C@H](Nc1c(Cl)cnc2ccc(-c3cnc(C(C)(C)O)nc3)cc12)[C@H]1CCCN(C(N)=O)C1` [Example 103, (S)-3-((S)-1-((3-chloro-6-(2-(2-hydroxypropan-2-yl)pyrimidin-5-yl)quinolin-4-yl)amino)ethyl)piperidine-1-carboxamide], with 1 to 10 µM; and `CCN1CCC[C@H]([C@H](C)Nc2c(Cl)cnc3ccc(-c4cnc(C(C)(C)O)nc4)cc23)C1` [Example 105, 2-(5-(3-chloro-4-(((S)-1-((S)-1-ethylpiperidin-3-yl)ethyl)amino)quinolin-6-yl)pyrimidin-2-yl)propan-2-ol], with below 1 µM.
Regarding `CC(Nc1c(Cl)cnc2ccc(-c3cnc(C(C)(C)O)nc3)cc12)[C@H]1CCCN(CC(O)CO)C1` (stereo partly drawn) [Example 106, 3-((S)-3-((S)-1-((3-chloro-6-(2-(2-hydroxypropan-2-yl)pyrimidin-5-yl)quinolin-4-yl)amino)ethyl)piperidin-1-yl)propane-1,2-diol], the IC50 lay within 1 to 10 µM.
Same read-out and setting: in the case of `COC(=O)[C@H](CNC(C)=O)N1CCN(c2ncc(-c3ccc4ncc(Cl)c(N[C@H](C)c5ccccc5F)c4c3)cn2)CC1` [Example 109, methyl (S)-3-acetamido-2-(4-(5-(3-chloro-4-(((R)-1-(2-fluorophenyl)ethyl)amino)quinolin-6-yl)pyrimidin-2-yl)piperazin-1-yl)propanoate] it was 1 to 10 µM; in that of `CC(=O)NCc1ccc(-c2ccc3ncc(Cl)c(N[C@H](C)c4ccccc4F)c3c2)cc1` [Example 110, (R)—N-(4-(3-chloro-4-((1-(2-fluorophenyl)ethyl)amino)quinolin-6-yl)benzyl)acetamide], below 1 µM; in that of `C[C@@H](Nc1c(Cl)cnc2ccc(-c3ccc(C4(NS(C)(=O)=O)CCC4)cc3)cc12)c1ccccc1F` [Example 111, (R)—N-(1-(4-(3-chloro-4-((1-(2-fluorophenyl)ethyl)amino)quinolin-6-yl)phenyl)cyclobutyl)methanesulfonamide], 10 to 25 µM.
Still for that read-out and setting: in the case of `CC(=O)NC1(c2ccc(-c3ccc4ncc(Cl)c(N[C@H](C)c5ccccc5F)c4c3)cc2)CCC1` [Example 113, (R)—N-(1-(4-(3-chloro-4-((1-(2-fluorophenyl)ethyl)amino)quinolin-6-yl)phenyl)cyclobutyl)acetamide] it was 10 to 25 µM.
On the same count and under the same terms, then `C[C@@H](Nc1c(Cl)cnc2ccc(-c3cnc(C4(O)CCC(=O)CC4)nc3)cc12)c1ccccc1F` [Example 114, (R)-4-(5-(3-chloro-4-((1-(2-fluorophenyl)ethyl)amino)quinolin-6-yl)pyrimidin-2-yl)-4-hydroxycyclohexanone], with below 1 µM; and `C[C@@H](Nc1c(Cl)cnc2ccc(-c3ccc(C(O)(CF)CF)cc3)cc12)c1ccccc1F` [Example 117, (R)-2-(4-(3-chloro-4-((1-(2-fluorophenyl)ethyl)amino)quinolin-6-yl)phenyl)-1,3-difluoropropan-2-ol], with below 1 µM.
As for `C[C@@H](Nc1c(Cl)cnc2ccc(-c3ccc(C4(N)CCC4)cc3)cc12)c1ccccc1F` [Example 118, (R)-6-(4-(1-aminocyclobutyl)phenyl)-3-chloro-N-(1-(2-fluorophenyl)ethyl)quinolin-4-amine], the IC50 is below 1 µM.
For `C[C@@H](Nc1c(Cl)cnc2ccc(-c3cnc(C4(O)CCCC4)nc3)cc12)c1ccccc1F` [Example 120, (R)-1-(5-(3-chloro-4-((1-(2-fluorophenyl)ethyl)amino)quinolin-6-yl)pyrimidin-2-yl)cyclopentan-1-ol], the IC50 was below 1 µM.

The IC50 is the concentration at which inhibition is half-maximal.

Source of the values: patent US10865191B2, “Heterocyclic compounds useful as modulators of TNF alpha” (BRISTOL-MYERS SQUIBB COMPANY, priority 2015, dated 2020).
